Test results published in PubChem BioAssay AID1963978 (Molecular Pharmacology Branch, DTP, NCI, 2024).
pIC50: −log10 of the molar value.

Test system: 616215-338-R-J1-PDC spheroids with HUVEC/MSC, viability
Test: Anticancer human tumor 616215-338-R-J1-PDC patient-derived colon adenocarcinoma cell line growth inhibition [PI3K]
Conditions: for pIC50: curve of first compound; for viability, T/C: stronger effect = lower value
Summary of the method: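 High-throughput combination screen: PI3K inhibitors crossed with targeted small molecules on complex spheroids of tumor cells, HUVEC and MSCs at 37 degrees C, 5% CO2. Top concentration was at or near clinical Cmax (otherwise 10 microM), with half-log decrements.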

[1] = second compound 0.0316 µM, first compound 0.0316 µM
[2] = second compound 0.0316 µM, first compound 0.1 µM
[3] = second compound 0.0316 µM, first compound 0.316 µM
[4] = second compound 0.0316 µM, first compound 1 µM
[5] = second compound 0.1 µM, first compound 0.0316 µM
[6] = second compound 0.1 µM, first compound 0.1 µM
[7] = second compound 0.1 µM, first compound 0.316 µM
[8] = second compound 0.1 µM, first compound 1 µM
[9] = second compound 0.316 µM, first compound 0.0316 µM
[10] = second compound 0.316 µM, first compound 0.1 µM
[11] = second compound 0.316 µM, first compound 0.316 µM
[12] = second compound 0.316 µM, first compound 1 µM
[13] = second compound 1 µM, first compound 0.0316 µM
[14] = second compound 1 µM, first compound 0.1 µM
[15] = second compound 1 µM, first compound 0.316 µM
[16] = second compound 1 µM, first compound 1 µM
[17] = second compound 3.16 µM, first compound 0.0316 µM
[18] = second compound 3.16 µM, first compound 0.1 µM
[19] = second compound 3.16 µM, first compound 0.316 µM
[20] = second compound 3.16 µM, first compound 1 µM
[21] = second compound 10 µM, first compound 0.0316 µM
[22] = second compound 10 µM, first compound 0.1 µM
[23] = second compound 10 µM, first compound 0.316 µM
[24] = second compound 10 µM, first compound 1 µM
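Also: spheroids exposed to agents for seven days before the viability read.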

CC(C)NCC(C(=O)N1CCN(c2ncnc3c2C(C)CC3O)CC1)c1ccc(Cl)cc1 (centres undefined) + CC(Nc1ncnc2nc[nH]c12)c1cc2cccc(Cl)c2c(=O)n1-c1ccccc1
pIC50 (second compound 0.0316 µM): 5.38 | pIC50 (second compound 0.1 µM): 5.42 | pIC50 (second compound 0.316 µM): 5.32 | pIC50 (second compound 1 µM): 5.29 | pIC50 (second compound 3.16 µM): 5.38 | pIC50 (second compound 10 µM): 5.45 | viability, T/C [1]: 91.7% | viability, T/C [2]: 93.4% | viability, T/C [3]: 94.4% | viability, T/C [4]: 87.2% | viability, T/C (second compound 0.0316 µM, first compound 3.16 µM): 57.9% | viability, T/C (second compound 0.0316 µM, first compound 10 µM): 24.9% | viability, T/C [5]: 103% | viability, T/C [6]: 86.7% | viability, T/C [7]: 91% | viability, T/C [8]: 94.2% | viability, T/C (second compound 0.1 µM, first compound 3.16 µM): 54.8% | viability, T/C (second compound 0.1 µM, first compound 10 µM): 23.5% | viability, T/C [9]: 90.5% | viability, T/C [10]: 95% | viability, T/C [11]: 83.7% | viability, T/C [12]: 94% | viability, T/C (second compound 0.316 µM, first compound 3.16 µM): 65.2% | viability, T/C (second compound 0.316 µM, first compound 10 µM): 21.9% | viability, T/C [13]: 90.3% | viability, T/C [14]: 90.8% | viability, T/C [15]: 101% | viability, T/C [16]: 109% | viability, T/C (second compound 1 µM, first compound 3.16 µM): 67.2% | viability, T/C (second compound 1 µM, first compound 10 µM): 25.4% | viability, T/C [17]: 89.2% | viability, T/C [18]: 101% | viability, T/C [19]: 99.8% | viability, T/C [20]: 79.9% | viability, T/C (second compound 3.16 µM, first compound 3.16 µM): 58.4% | viability, T/C (second compound 3.16 µM, first compound 10 µM): 26.2% | viability, T/C [21]: 105% | viability, T/C [22]: 104% | viability, T/C [23]: 100% | viability, T/C [24]: 91.7% | viability, T/C (second compound 10 µM, first compound 3.16 µM): 52.2% | viability, T/C (second compound 10 µM, first compound 10 µM): 27.8%

CCN1CCN(Cc2ccc(Nc3ncc(F)c(-c4cc(F)c5nc(C)n(C(C)C)c5c4)n3)nc2)CC1 + CC(Nc1ncnc2nc[nH]c12)c1cc2cccc(Cl)c2c(=O)n1-c1ccccc1
pIC50 (second compound 0.0316 µM): < 6.00 | pIC50 (second compound 0.1 µM): < 6.00 | pIC50 (second compound 0.316 µM): < 6.00 | pIC50 (second compound 1 µM): < 6.00 | pIC50 (second compound 3.16 µM): < 6.00 | pIC50 (second compound 10 µM): < 6.00 | viability, T/C (second compound 0.0316 µM, first compound 0.00316 µM): 92% | viability, T/C (second compound 0.0316 µM, first compound 0.01 µM): 90.9% | viability, T/C [1]: 100% | viability, T/C [2]: 98.6% | viability, T/C [3]: 150% | viability, T/C [4]: 109% | viability, T/C (second compound 0.1 µM, first compound 0.00316 µM): 91.5% | viability, T/C (second compound 0.1 µM, first compound 0.01 µM): 88.2% | viability, T/C [5]: 104% | viability, T/C [6]: 106% | viability, T/C [7]: 137% | viability, T/C [8]: 149% | viability, T/C (second compound 0.316 µM, first compound 0.00316 µM): 95.2% | viability, T/C (second compound 0.316 µM, first compound 0.01 µM): 93.9% | viability, T/C [9]: 98.2% | viability, T/C [10]: 100% | viability, T/C [11]: 147% | viability, T/C [12]: 106% | viability, T/C (second compound 1 µM, first compound 0.00316 µM): 98.5% | viability, T/C (second compound 1 µM, first compound 0.01 µM): 90.5% | viability, T/C [13]: 105% | viability, T/C [14]: 108% | viability, T/C [15]: 148% | viability, T/C [16]: 79.7% | viability, T/C (second compound 3.16 µM, first compound 0.00316 µM): 106% | viability, T/C (second compound 3.16 µM, first compound 0.01 µM): 93.9% | viability, T/C [17]: 123% | viability, T/C [18]: 124% | viability, T/C [19]: 144% | viability, T/C [20]: 86.8% | viability, T/C (second compound 10 µM, first compound 0.00316 µM): 111% | viability, T/C (second compound 10 µM, first compound 0.01 µM): 107% | viability, T/C [21]: 118% | viability, T/C [22]: 120% | viability, T/C [23]: 114% | viability, T/C [24]: 57.9%
